Reference: patent US12162840B2, “Herbicidal compositions” (SYNGENTA PARTICIPATIONS AG, priority 2018, dated 2024)

Experiments:
Assay type in all cases: in vivo
[1] = tested on: Lolium perenne (LOLPE); test: B1 Post-emergence efficacy Test 1; conditions: post-emergence application, 1000 g/ha, evaluated after 13 days
Summary of the method: (§1)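 Damage ratings on a 1–5 scale (5=80-100%, 4=60-79%, 3=40-59%, 2=20-39%, 1=0-19%) come from visual assessment 13 days after spraying. Plants were treated at 8 days post-sowing with 1000 g/ha in acetone/water (50:50) containing 0.5% Tween 20.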

[2] = tested on: Setaria faberi (SETFA); test: B1 Post-emergence efficacy Test 1; conditions: post-emergence application, 1000 g/ha, evaluated after 13 days
Summary of the method: as §1

[3] = tested on: Echinochloa crus-galli (ECHCG); test: B1 Post-emergence efficacy Test 1; conditions: post-emergence application, 1000 g/ha, evaluated after 13 days
Summary of the method: as §1

[4] = tested on: Ipomoea hederacea (IPOHE); test: B1 Post-emergence efficacy Test 1; conditions: post-emergence application, 1000 g/ha, evaluated after 13 days
Summary of the method: as §1

[5] = tested on: Amaranthus retoflexus (AMARE); test: B1 Post-emergence efficacy Test 1; conditions: post-emergence application, 1000 g/ha, evaluated after 13 days
Summary of the method: as §1

[6] = tested on: Solanum nigrum (SOLNI); test: B1 Post-emergence efficacy Test 1; conditions: post-emergence application, 1000 g/ha, evaluated after 13 days
Summary of the method: as §1

[7] = tested on: warm season plant species; test: B2 Post-emergence efficacy Test 2, warm season plant species; conditions: 15 days after application, 0-100 scale, 0=no damage, 100=total kill; for Herbicidal activity, ABUTH: Abutilon theophrasti; for Herbicidal activity, AMARE: Amaranthus retroflexus; for Herbicidal activity, BIDPI: Bidens pilosa; for Herbicidal activity, BRAPL: Brachiaria plantaginea; for Herbicidal activity, DIGSA: Digitaria sanguinalis; for Herbicidal activity, ECHCG: Echinochloa crus galli; for Herbicidal activity, ELEIN: Eleisine indica; for Herbicidal activity, EPHHL: Euphorbia hetrophylla; for Herbicidal activity, GLXMA: Glycine max; for Herbicidal activity, IPOHE: Ipomoea hederacea; for Herbicidal activity, ORYSA: Orysa sativa; for Herbicidal activity, PANMI: Panicum miliaceum; for Herbicidal activity, SETFA: Setaria faberi; for Herbicidal activity, SIDSP: Sida spinosa; for Herbicidal activity, SORVU: Sorghum bicolour; for Herbicidal activity, XANST: Xanthium strumarium; for Herbicidal activity, ZEAMX: Zea mays
Summary of the method: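 Herbicidal effect rated visually 0 (no damage) to 100 (complete kill) at 15 days post-treatment. Post-emergence spray at 12 days used an IF50 formulation with 0.2% v/v Genapol XO80 adjuvant; glasshouse 24/18 or 20/16 °C, 16 h light, 65% humidity.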

Cc1nn(C)c(=O)c(-c2c(F)ccc(Cl)c2CCc2ccc(F)cc2)c1O [Compound 1.048]
percentage damage caused to the plant, five point scale, LOLPE [1]: 5 (5=80-100%)
percentage damage caused to the plant, five point scale, SETFA [2]: 5 (5=80-100%)
percentage damage caused to the plant, five point scale, ECHCG [3]: 5 (5=80-100%)
percentage damage caused to the plant, five point scale, IPOHE [4]: 5 (5=80-100%)
percentage damage caused to the plant, five point scale, AMARE [5]: 5 (5=80-100%)
percentage damage caused to the plant, five point scale, SOLNI [6]: 5 (5=80-100%)
Herbicidal activity, ABUTH ([7]; 15 g/Ha): 60
Herbicidal activity, ABUTH ([7]; 30 g/Ha): 80
Herbicidal activity, ABUTH ([7]; 60 g/Ha): 90
Herbicidal activity, ABUTH ([7]; 125 g/Ha): 90
Herbicidal activity, ABUTH ([7]; 250 g/Ha): 90
Herbicidal activity, ABUTH ([7]; 500 g/Ha): 100
Herbicidal activity, AMARE ([7]; 15 g/Ha): 60
Herbicidal activity, AMARE ([7]; 30 g/Ha): 80
Herbicidal activity, AMARE ([7]; 60 g/Ha): 90
Herbicidal activity, AMARE ([7]; 125 g/Ha): 90
Herbicidal activity, AMARE ([7]; 250 g/Ha): 100
Herbicidal activity, AMARE ([7]; 500 g/Ha): 100
Herbicidal activity, BIDPI ([7]; 15 g/Ha): 70
Herbicidal activity, BIDPI ([7]; 30 g/Ha): 70
Herbicidal activity, BIDPI ([7]; 60 g/Ha): 70
Herbicidal activity, BIDPI ([7]; 125 g/Ha): 70
Herbicidal activity, BIDPI ([7]; 250 g/Ha): 100
Herbicidal activity, BIDPI ([7]; 500 g/Ha): 100
Herbicidal activity, BRAPL ([7]; 15 g/Ha): 20
Herbicidal activity, BRAPL ([7]; 30 g/Ha): 60
Herbicidal activity, BRAPL ([7]; 60 g/Ha): 80
Herbicidal activity, BRAPL ([7]; 125 g/Ha): 80
Herbicidal activity, BRAPL ([7]; 250 g/Ha): 90
Herbicidal activity, BRAPL ([7]; 500 g/Ha): 100
Herbicidal activity, DIGSA ([7]; 15 g/Ha): 0
Herbicidal activity, DIGSA ([7]; 30 g/Ha): 10
Herbicidal activity, DIGSA ([7]; 60 g/Ha): 20
Herbicidal activity, DIGSA ([7]; 125 g/Ha): 20
Herbicidal activity, DIGSA ([7]; 250 g/Ha): 50
Herbicidal activity, DIGSA ([7]; 500 g/Ha): 70
Herbicidal activity, ECHCG ([7]; 15 g/Ha): 60
Herbicidal activity, ECHCG ([7]; 30 g/Ha): 80
Herbicidal activity, ECHCG ([7]; 60 g/Ha): 80
Herbicidal activity, ECHCG ([7]; 125 g/Ha): 90
Herbicidal activity, ECHCG ([7]; 250 g/Ha): 90
Herbicidal activity, ECHCG ([7]; 500 g/Ha): 100
Herbicidal activity, ELEIN ([7]; 15 g/Ha): 0
Herbicidal activity, ELEIN ([7]; 30 g/Ha): 50
Herbicidal activity, ELEIN ([7]; 60 g/Ha): 60
Herbicidal activity, ELEIN ([7]; 125 g/Ha): 60
Herbicidal activity, ELEIN ([7]; 250 g/Ha): 80
Herbicidal activity, ELEIN ([7]; 500 g/Ha): 80
Herbicidal activity, EPHHL ([7]; 15 g/Ha): 50
Herbicidal activity, EPHHL ([7]; 30 g/Ha): 70
Herbicidal activity, EPHHL ([7]; 60 g/Ha): 90
Herbicidal activity, EPHHL ([7]; 125 g/Ha): 90
Herbicidal activity, EPHHL ([7]; 250 g/Ha): 100
Herbicidal activity, EPHHL ([7]; 500 g/Ha): 100
Herbicidal activity, GLXMA ([7]; 15 g/Ha): 70
Herbicidal activity, GLXMA ([7]; 30 g/Ha): 80
Herbicidal activity, GLXMA ([7]; 60 g/Ha): 90
Herbicidal activity, GLXMA ([7]; 125 g/Ha): 90
Herbicidal activity, GLXMA ([7]; 250 g/Ha): 90
Herbicidal activity, GLXMA ([7]; 500 g/Ha): 100
Herbicidal activity, IPOHE ([7]; 15 g/Ha): 70
Herbicidal activity, IPOHE ([7]; 30 g/Ha): 80
Herbicidal activity, IPOHE ([7]; 60 g/Ha): 100
Herbicidal activity, IPOHE ([7]; 125 g/Ha): 100
Herbicidal activity, IPOHE ([7]; 250 g/Ha): 100
Herbicidal activity, IPOHE ([7]; 500 g/Ha): 100
Herbicidal activity, ORYSA ([7]; 15 g/Ha): 0
Herbicidal activity, ORYSA ([7]; 30 g/Ha): 0
Herbicidal activity, ORYSA ([7]; 60 g/Ha): 0
Herbicidal activity, ORYSA ([7]; 125 g/Ha): 0
Herbicidal activity, ORYSA ([7]; 250 g/Ha): 10
Herbicidal activity, ORYSA ([7]; 500 g/Ha): 30
Herbicidal activity, PANMI ([7]; 15 g/Ha): 0
Herbicidal activity, PANMI ([7]; 30 g/Ha): 20
Herbicidal activity, PANMI ([7]; 60 g/Ha): 30
Herbicidal activity, PANMI ([7]; 125 g/Ha): 80
Herbicidal activity, PANMI ([7]; 250 g/Ha): 100
Herbicidal activity, PANMI ([7]; 500 g/Ha): 100
Herbicidal activity, SETFA ([7]; 15 g/Ha): 0
Herbicidal activity, SETFA ([7]; 30 g/Ha): 40
Herbicidal activity, SETFA ([7]; 60 g/Ha): 40
Herbicidal activity, SETFA ([7]; 125 g/Ha): 70
Herbicidal activity, SETFA ([7]; 250 g/Ha): 80
Herbicidal activity, SETFA ([7]; 500 g/Ha): 100
Herbicidal activity, SIDSP ([7]; 15 g/Ha): 80
Herbicidal activity, SIDSP ([7]; 30 g/Ha): 80
Herbicidal activity, SIDSP ([7]; 60 g/Ha): 80
Herbicidal activity, SIDSP ([7]; 125 g/Ha): 90
Herbicidal activity, SIDSP ([7]; 250 g/Ha): 90
Herbicidal activity, SIDSP ([7]; 500 g/Ha): 90
Herbicidal activity, SORVU ([7]; 15 g/Ha): 0
Herbicidal activity, SORVU ([7]; 30 g/Ha): 30
Herbicidal activity, SORVU ([7]; 60 g/Ha): 70
Herbicidal activity, SORVU ([7]; 125 g/Ha): 70
Herbicidal activity, SORVU ([7]; 250 g/Ha): 80
Herbicidal activity, SORVU ([7]; 500 g/Ha): 90
Herbicidal activity, XANST ([7]; 60 g/Ha): 90
Herbicidal activity, XANST ([7]; 125 g/Ha): 90
Herbicidal activity, XANST ([7]; 250 g/Ha): 90
Herbicidal activity, XANST ([7]; 500 g/Ha): 100
Herbicidal activity, ZEAMX ([7]; 15 g/Ha): 0
Herbicidal activity, ZEAMX ([7]; 30 g/Ha): 10
Herbicidal activity, ZEAMX ([7]; 60 g/Ha): 50
Herbicidal activity, ZEAMX ([7]; 125 g/Ha): 50
Herbicidal activity, ZEAMX ([7]; 250 g/Ha): 70
Herbicidal activity, ZEAMX ([7]; 500 g/Ha): 100
